Data as given in the supplement of paper PMC11208160.

Assay: recombinant barcode read abundance after kanamycin selection (control-corrected) (log10(CPM+1)); higher = more efficient recombination; sequences stand for … in AGTGCAGAGAAAATCGGCCAGTTTTCTCTGCCTGCAGTCCGCATGCCGT…AGATTTATGCAGCGGACTGCCTTTCTCCCAAAGTGATAAACCGGACAGTATCATGGACCGGTTTTCCCGGTAATCCGTATTTGCAAGGTTGGTTTCACT; site = the 11-nt target
Summary of the method: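 IS621 bridge RNA target-binding loops were paired with targets in a pooled library tested in E. coli. After co-electroporation with a donor plasmid, cells were plated in two replicates on chloramphenicol/ampicillin LB agar (control) and on chloramphenicol/ampicillin/kanamycin carrying 0.1 mM IPTG. Barcodes at recombinant junctions were counted as counts per million, averaged and control-corrected to give recombination efficiency. Values are log10(CPM+1).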
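Also: IS621 recombinase and bridge RNA in Escherichia coli cells.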

Sequence	recombinant barcode read abundance (log10)
GGGCTCCCTTGGGTTCTAACCTGTTGCCG (site GGGCTCCCTCG)	1.92
GGGCTCCCTTGGGTTCTAACCTGTTGCCG (site TACAATTCTAT)	0.128
GGGCTTACTTGGGTTCTAACCTGTTGCCT (site GAGCTTACTAG)	0.695
GGGCTTACTTGGGTTCTAACCTGTTGCCT (site GCGCTTACTAG)	0.362
GGGCTTACTTGGGTTCTAACCTGTTGCCT (site GGGCTTACTAG)	0.178
GGGCTTACTTGGGTTCTAACCTGTTGCCT (site GTGCTTACTAG)	0.325
GGGGACCCTTGGGTTCTAACCTGTTGCGG (site GGGGACCCTAC)	2.34
GGGGACCCTTGGGTTCTAACCTGTTGCGG (site GGGGACCCTCC)	3.01
GGGGACCCTTGGGTTCTAACCTGTTGCGG (site GGGGACCCTGC)	0.667
GGGGACCCTTGGGTTCTAACCTGTTGCGG (site GGGGACCCTTC)	1.55
GGGGACCCTTGGGTTCTAACCTGTTGCGT (site GGGGACCCTAC)	3.4
GGGGACCCTTGGGTTCTAACCTGTTGCGT (site GGGGACCCTCC)	1.46
GGGGACCCTTGGGTTCTAACCTGTTGCGT (site GGGGACCCTGC)	1.44
GGGGACCCTTGGGTTCTAACCTGTTGCGT (site GGGGACCCTTC)	1.18
GGGGAGTCTTGGGTTCTAACCTGTTGCTT (site GGGGAGCCTCA)	0.16
GGGGAGTCTTGGGTTCTAACCTGTTGCTT (site GGGGAGTCTAA)	2.26
GGGGCAACTTGGGTTCTAACCTGTTGCTA (site CGGGCTACTTA)	0.0424
GGGGCAACTTGGGTTCTAACCTGTTGCTA (site GGGGCAACTTA)	0.388
GGGGCACCTTGGGTTCTAACCTGTTGCCT (site GGGGCACCTAA)	0.216
GGGGCACCTTGGGTTCTAACCTGTTGCCT (site GGGGCACCTAC)	0.0542
GGGGCACCTTGGGTTCTAACCTGTTGCCT (site GGGGCACCTAG)	1.15
GGGGCACCTTGGGTTCTAACCTGTTGCCT (site GGGGCACCTAT)	0.556

Sequence	recombinant barcode read abundance (log10)
GGGGCACCTTGGGTTCTAACCTGTTGCTT (site GGGGCACCTAA)	2.29
GGGGCACCTTGGGTTCTAACCTGTTGCTT (site GGGGCACCTAC)	0.68
GGGGCACCTTGGGTTCTAACCTGTTGCTT (site GGGGCACCTAG)	1.48
GGGGCACCTTGGGTTCTAACCTGTTGCTT (site GGGGCACCTAT)	2.06
GGGGCGTCTTGGGTTCTAACCTGTTGCTT (site GGGGCATCTAA)	1.54
GGGGCGTCTTGGGTTCTAACCTGTTGCTT (site GGGGCCTCTAA)	0.0129
GGGGCGTCTTGGGTTCTAACCTGTTGCTT (site GGGGCGTCTAA)	2.16
GGGGCGTCTTGGGTTCTAACCTGTTGCTT (site GGGGCTTCTAA)	0.0767
GGGGCTACTTGGGTTCTAACCTGTTGCCT (site GGGGCTACTAG)	0.396
GGGGCTACTTGGGTTCTAACCTGTTGCCT (site GGGGCTACTGT)	0.183
GGGGTCCCTTGGGTTCTAACCTGTTGCTT (site CTCAAAGCTTC)	0.0621
GGGGTCCCTTGGGTTCTAACCTGTTGCTT (site GGGGTCCCTAA)	2.79
GGGTCCACTTGGGTTCTAACCTGTTGCAT (site GGGTCCACTAA)	0.481
GGGTCCACTTGGGTTCTAACCTGTTGCAT (site GGGTCCACTAC)	0.13
GGGTCCACTTGGGTTCTAACCTGTTGCAT (site GGGTCCACTAG)	0.699
GGGTCCACTTGGGTTCTAACCTGTTGCAT (site GGGTCCACTAT)	2.17
GGGTCCACTTGGGTTCTAACCTGTTGCGT (site GGGTCCACTAA)	0.239
GGGTCCACTTGGGTTCTAACCTGTTGCGT (site GGGTCCACTAC)	2.82
GGGTCCACTTGGGTTCTAACCTGTTGCGT (site GGGTCCACTAG)	1.5
GGGTCCACTTGGGTTCTAACCTGTTGCGT (site GGGTCCACTAT)	1.45
GGGTCCTCTTGGGTTCTAACCTGTTGCCC (site GGGTCCTCTAG)	1.36
GGGTCCTCTTGGGTTCTAACCTGTTGCCC (site GGGTCCTCTCG)	0.0863

Sequence	recombinant barcode read abundance (log10)
GGGTCCTCTTGGGTTCTAACCTGTTGCCC (site GGGTCCTCTGG)	1.23
GGGTCCTCTTGGGTTCTAACCTGTTGCCC (site GGGTCCTCTTG)	0.0208
GGGTCCTCTTGGGTTCTAACCTGTTGCCG (site GGGTCCTCTAG)	1.32
GGGTCCTCTTGGGTTCTAACCTGTTGCCG (site GGGTCCTCTCG)	2.01
GGGTCCTCTTGGGTTCTAACCTGTTGCCG (site GGGTCCTCTGG)	0.422
GGGTCCTCTTGGGTTCTAACCTGTTGCCG (site GGGTCCTCTTG)	0.205
GGGTTCACTTGGGTTCTAACCTGTTGCCG (site GAGTTCACTAG)	0.0415
GGGTTCACTTGGGTTCTAACCTGTTGCCG (site GGGTTCACTCG)	1.43
GGGTTGCCTTGGGTTCTAACCTGTTGCCT (site GAGTTGCCTAG)	0.945
GGGTTGCCTTGGGTTCTAACCTGTTGCCT (site GCGTTGCCTAG)	1.1
GGGTTGCCTTGGGTTCTAACCTGTTGCCT (site GGGTTGCCTAG)	1.46
GGGTTGCCTTGGGTTCTAACCTGTTGCCT (site GTGTTGCCTAG)	0.144
GGTAAGACTTGGGTTCTAACCTGTTGCCT (site GGAAAGACTAG)	0.31
GGTAAGACTTGGGTTCTAACCTGTTGCCT (site GGCAAGACTAG)	0.318
GGTAAGACTTGGGTTCTAACCTGTTGCCT (site GGGAAGACTAG)	0.197
GGTAAGACTTGGGTTCTAACCTGTTGCCT (site GGTAAGACTAG)	1.47
GGTATGTCTTGGGTTCTAACCTGTTGCTG (site CGAATGTCTCA)	0.119
GGTATGTCTTGGGTTCTAACCTGTTGCTG (site GGTATGTCTCA)	0.857
GGTATGTCTTGGGTTCTAACCTGTTGCTT (site GCTATGTCTAG)	0.0865
GGTATGTCTTGGGTTCTAACCTGTTGCTT (site GGTATGTCTAA)	0.641
GGTCAACCTTGGGTTCTAACCTGTTGCCT (site GATCAACCTAG)	0.394
GGTCAACCTTGGGTTCTAACCTGTTGCCT (site GCTCAACCTAG)	0.172

Sequence	recombinant barcode read abundance (log10)
GGTCAACCTTGGGTTCTAACCTGTTGCCT (site GGTCAACCTAG)	1.14
GGTCAACCTTGGGTTCTAACCTGTTGCCT (site GTTCAACCTAG)	0.486
GGTCAGTCTTGGGTTCTAACCTGTTGCGG (site GGTCAGTCTCC)	1.84
GGTCAGTCTTGGGTTCTAACCTGTTGCGG (site TAGTTTACTTA)	0.0859
GGTCATGCTTGGGTTCTAACCTGTTGCCT (site GGTCATACTAG)	0.169
GGTCATGCTTGGGTTCTAACCTGTTGCCT (site GGTCATCCTAG)	0.131
GGTCATGCTTGGGTTCTAACCTGTTGCCT (site GGTCATGCTAG)	1.11
GGTCATGCTTGGGTTCTAACCTGTTGCCT (site GGTCATTCTAG)	0.0304
GGTCCACCTTGGGTTCTAACCTGTTGCCT (site AGTCCACCTAG)	0.386
GGTCCACCTTGGGTTCTAACCTGTTGCCT (site CGTCCACCTAG)	0.181
GGTCCACCTTGGGTTCTAACCTGTTGCCT (site GGTCCACCTAG)	1.07
GGTCCACCTTGGGTTCTAACCTGTTGCCT (site TGTCCACCTAG)	0.108
GGTCCCACTTGGGTTCTAACCTGTTGCCT (site GGGCTCACTAG)	0.0761
GGTCCCACTTGGGTTCTAACCTGTTGCCT (site GGTCCCACTAG)	0.943
GGTCCGTCTTGGGTTCTAACCTGTTGCAT (site AGTCGGTCTAT)	0.127
GGTCCGTCTTGGGTTCTAACCTGTTGCAT (site GGTCCGTCTAT)	1.16
GGTCCTACTTGGGTTCTAACCTGTTGCCT (site GATCCTACTAG)	0.241
GGTCCTACTTGGGTTCTAACCTGTTGCCT (site GCTCCTACTAG)	0.0585
GGTCCTACTTGGGTTCTAACCTGTTGCCT (site GGTCCTACTAG)	0.355
GGTCCTACTTGGGTTCTAACCTGTTGCCT (site GTTCCTACTAG)	0.187
